Results taken from patent publication US12478624B2, “Heterocyclic derivatives, pharmaceutical compositions and their use in the treatment or amelioration of cancer” (Tolremo Therapeutics AG, priority 2019, dated 2025).

Columns and labels:
OPM-2 = experiment: Assay 2: multiple myeloma cellular efficacy, PrestoBlue cell proliferation/survival; format: cell-based; conditions: Homo sapiens, 96 h, OPM-2 cells, 4 days
In short: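 Cells seeded at 10000/well and exposed to a compound dose range or vehicle for 4 days, then stained with PrestoBlue for 2 h at 37 °C. Fluorescence was background-subtracted and normalized to vehicle; EC50 came from a four-parameter variable-slope fit against log concentration.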

BRDT(1) = target: T1, BRDT(1) (Homo sapiens, UniProt Q58F21); experiment: BromoKdMAX (BROMOscan, DiscoverX); format: binding
T1 construct: T7 phage strains displaying bromodomains were grown in parallel; purchased DiscoverX; host or cells: T7 phage in an E. coli host derived from the BL21 strain
Procedure: (§1) A BromoKdMAX was performed at DiscoverX.
(§2) BROMOscan™ is a novel industry leading platform for identifying small molecule bromodomain inhibitors. Based on proven KINOMEscan™ technology, BROMOscan™ employs a proprietary ligand binding site-directed competition assay to quantitatively measure interactions between test compounds and bromodomains. This robust and reliable assay panel is suitable for high throughput screening and delivers quantitative ligand binding data to facilitate the identification and optimization of potent and selective small molecule bromodomain inhibitors.
(§3) For the Bromodomain assays, T7 phage strains displaying bromodomains were grown in parallel in 24-well blocks in an E. coli host derived from the BL21 strain. E. coli were grown to log-phase and infected with T7 phage from a frozen stock (multiplicity of infection=0.4) and incubated with shaking at 32° C. until lysis (90-150 minutes). The lysates were centrifuged (5,000×g) and filtered (0.2 μm) to remove cell debris. […] The liganded beads were blocked with excess biotin and washed with blocking buffer (SeaBlock (Pierce), 1% BSA, 0.05% Tween 20, 1 mM DTT) to remove unbound ligand and to reduce non-specific phage binding. […] Test compounds were prepared as 1000× stocks in 100% DMSO. Kds were determined using an 11-point 3-fold compound dilution series with one DMSO control point. […] The compounds were then diluted directly into the assays such that the final concentration of DMSO was 0.09%. All reactions performed in polypropylene 384-well plates. Each was a final volume of 0.02 ml. […] The bromodomain concentration in the eluates was measured by qPCR.

BRDT(2) = target: T2, BRDT(2) (Homo sapiens, UniProt Q58F21); experiment: BromoKdMAX (BROMOscan, DiscoverX); format: binding
T2 construct: T7 phage strains displaying bromodomains were grown in parallel; purchased DiscoverX; host or cells: T7 phage in an E. coli host derived from the BL21 strain
Procedure: as §1, §2, §3

BRPF3 = target: T3, BRPF3 (Homo sapiens, UniProt Q9ULD4); experiment: BromoKdMAX (BROMOscan, DiscoverX); format: binding
T3 construct: T7 phage strains displaying bromodomains were grown in parallel; purchased DiscoverX; host or cells: T7 phage in an E. coli host derived from the BL21 strain
Procedure: as §1, §2, §3

PBRM1(5) = target: T4, PBRM1(5) (Homo sapiens, UniProt Q86U86); experiment: BromoKdMAX (BROMOscan, DiscoverX); format: binding
T4 construct: T7 phage strains displaying bromodomains were grown in parallel; purchased DiscoverX; host or cells: T7 phage grown in E. coli host derived from BL21
Procedure: as §1, §2, §3

PBRM1(2) = target: T5, PBRM1(2) (Homo sapiens, UniProt Q86U86); experiment: BromoKdMAX (BROMOscan, DiscoverX); format: binding
T5 construct: T7 phage strains displaying bromodomains were grown in parallel; purchased DiscoverX; host or cells: T7 phage grown in E. coli host derived from BL21
Procedure: as §1, §2, §3

BRDT(1, 2) = target: T6, BRDT(1, 2) (Homo sapiens, UniProt Q58F21); experiment: BromoKdMAX (BROMOscan, DiscoverX); format: binding
T6 construct: T7 phage strains displaying bromodomains were grown in parallel; purchased DiscoverX; host or cells: T7 phage in an E. coli host derived from the BL21 strain
Procedure: as §1, §2, §3

WDR9(2) = target: T7, WDR9(2) (Homo sapiens, UniProt Q9NSI6); experiment: BromoKdMAX (BROMOscan, DiscoverX); format: binding; conditions: WDR9(2) (BRWD1)
T7 construct: T7 phage strains displaying bromodomains were grown in parallel; purchased DiscoverX; host or cells: T7 phage grown in E. coli host derived from BL21
Procedure: as §1, §2, §3

BAZ2B = target: T8, BAZ2B (Homo sapiens, UniProt Q9UIF8); experiment: BromoKdMAX (BROMOscan, DiscoverX); format: binding
T8 construct: T7 phage strains displaying bromodomains were grown in parallel; purchased DiscoverX; host or cells: T7 phage in an E. coli host derived from the BL21 strain
Procedure: as §1, §2, §3

BRD3(1) = target: T9, BRD3(1) (Homo sapiens, UniProt Q15059); experiment: BromoKdMAX (BROMOscan, DiscoverX); format: binding
T9 construct: T7 phage strains displaying bromodomains were grown in parallel; purchased DiscoverX; host or cells: T7 phage in an E. coli host derived from the BL21 strain
Procedure: as §1, §2, §3

BRD8(1) = target: T10, BRD8(1) (Homo sapiens, UniProt Q9H0E9); experiment: BromoKdMAX (BROMOscan, DiscoverX); format: binding
T10 construct: T7 phage strains displaying bromodomains were grown in parallel; purchased DiscoverX; host or cells: T7 phage in an E. coli host derived from the BL21 strain
Procedure: as §1, §2, §3

BRD8(2) = target: T11, BRD8(2) (Homo sapiens, UniProt Q9H0E9); experiment: BromoKdMAX (BROMOscan, DiscoverX); format: binding
T11 construct: T7 phage strains displaying bromodomains were grown in parallel; purchased DiscoverX; host or cells: T7 phage in an E. coli host derived from the BL21 strain
Procedure: as §1, §2, §3

BRD7 = target: T12, BRD7 (Homo sapiens, UniProt Q9NPI1); experiment: BromoKdMAX (BROMOscan, DiscoverX); format: binding
T12 construct: T7 phage strains displaying bromodomains were grown in parallel; purchased DiscoverX; host or cells: T7 phage in an E. coli host derived from the BL21 strain
Procedure: as §1, §2, §3

SMARCA4 = target: T13, SMARCA4 (Homo sapiens, UniProt P51532); experiment: BromoKdMAX (BROMOscan, DiscoverX); format: binding
T13 construct: T7 phage strains displaying bromodomains were grown in parallel; purchased DiscoverX; host or cells: T7 phage grown in E. coli host derived from BL21
Procedure: as §1, §2, §3

BRD1 = target: T14, BRD1 (Homo sapiens, UniProt O95696); experiment: BromoKdMAX (BROMOscan, DiscoverX); format: binding
T14 construct: T7 phage strains displaying bromodomains were grown in parallel; purchased DiscoverX; host or cells: T7 phage in an E. coli host derived from the BL21 strain
Procedure: as §1, §2, §3

PCAF = target: T15, PCAF (Homo sapiens, UniProt Q92831); experiment: BromoKdMAX (BROMOscan, DiscoverX); format: binding; conditions: PCAF (KAT2B)
T15 construct: T7 phage strains displaying bromodomains were grown in parallel; purchased DiscoverX; host or cells: T7 phage grown in E. coli host derived from BL21
Procedure: as §1, §2, §3

TAF1L(2) = target: T16, TAF1L(2) (Homo sapiens, UniProt Q8IZX4); experiment: BromoKdMAX (BROMOscan, DiscoverX); format: binding
T16 construct: T7 phage strains displaying bromodomains were grown in parallel; purchased DiscoverX; host or cells: T7 phage grown in E. coli host derived from BL21
Procedure: as §1, §2, §3

GCN5L2 = target: T17, GCN5L2 (Homo sapiens, UniProt Q92830); experiment: BromoKdMAX (BROMOscan, DiscoverX); format: binding; conditions: GCN5L2 (KAT2A)
T17 construct: T7 phage strains displaying bromodomains were grown in parallel; purchased DiscoverX; host or cells: T7 phage grown in E. coli host derived from BL21
Procedure: as §1, §2, §3

CECR2 = target: T18, CECR2 (Homo sapiens, UniProt Q9BXF3); experiment: BromoKdMAX (BROMOscan, DiscoverX); format: binding
T18 construct: T7 phage strains displaying bromodomains were grown in parallel; purchased DiscoverX; host or cells: T7 phage grown in E. coli host derived from BL21
Procedure: as §1, §2, §3

BRD3(1, 2) = target: T19, BRD3(1, 2) (Homo sapiens, UniProt Q15059); experiment: BromoKdMAX (BROMOscan, DiscoverX); format: binding
T19 construct: T7 phage strains displaying bromodomains were grown in parallel; purchased DiscoverX; host or cells: T7 phage in an E. coli host derived from the BL21 strain
Procedure: as §1, §2, §3

TAF1(2) = target: T20, TAF1(2) (Homo sapiens, UniProt P21675); experiment: BromoKdMAX (BROMOscan, DiscoverX); format: binding
T20 construct: T7 phage strains displaying bromodomains were grown in parallel; purchased DiscoverX; host or cells: T7 phage grown in E. coli host derived from BL21
Procedure: as §1, §2, §3

SMARCA2 = target: T21, SMARCA2 (Homo sapiens, UniProt P51531); experiment: BromoKdMAX (BROMOscan, DiscoverX); format: binding
T21 construct: T7 phage strains displaying bromodomains were grown in parallel; purchased DiscoverX; host or cells: T7 phage grown in E. coli host derived from BL21
Procedure: as §1, §2, §3

ATAD2B = target: T22, ATAD2B (Homo sapiens, UniProt Q9ULI0); experiment: BromoKdMAX (BROMOscan, DiscoverX); format: binding
T22 construct: T7 phage strains displaying bromodomains were grown in parallel; purchased DiscoverX; host or cells: T7 phage in an E. coli host derived from the BL21 strain
Procedure: as §1, §2, §3

BRPF1 = target: T23, BRPF1 (Homo sapiens, UniProt P55201); experiment: BromoKdMAX (BROMOscan, DiscoverX); format: binding
T23 construct: T7 phage strains displaying bromodomains were grown in parallel; purchased DiscoverX; host or cells: T7 phage in an E. coli host derived from the BL21 strain
Procedure: as §1, §2, §3

BRD3(2) = target: T24, BRD3(2) (Homo sapiens, UniProt Q15059); experiment: BromoKdMAX (BROMOscan, DiscoverX); format: binding
T24 construct: T7 phage strains displaying bromodomains were grown in parallel; purchased DiscoverX; host or cells: T7 phage in an E. coli host derived from the BL21 strain
Procedure: as §1, §2, §3

TRIM24(Bromo.) = target: T25, TRIM24(Bromo.) (Homo sapiens, UniProt O15164); experiment: BromoKdMAX (BROMOscan, DiscoverX); format: binding
T25 construct: T7 phage strains displaying bromodomains were grown in parallel; purchased DiscoverX; host or cells: T7 phage grown in E. coli host derived from BL21
Procedure: as §1, §2, §3

BRD9 = target: T26, BRD9 (Homo sapiens, UniProt Q9H8M2); experiment: BromoKdMAX (BROMOscan, DiscoverX); format: binding
T26 construct: T7 phage strains displaying bromodomains were grown in parallel; purchased DiscoverX; host or cells: T7 phage in an E. coli host derived from the BL21 strain
Procedure: as §1, §2, §3

BAZ2A = target: T27, BAZ2A (Homo sapiens, UniProt Q9UIF9); experiment: BromoKdMAX (BROMOscan, DiscoverX); format: binding
T27 construct: T7 phage strains displaying bromodomains were grown in parallel; purchased DiscoverX; host or cells: T7 phage in an E. coli host derived from the BL21 strain
Procedure: as §1, §2, §3

TRIM24(PHD, Bromo.) = target: T28, TRIM24(PHD, Bromo.) (Homo sapiens, UniProt O15164); experiment: BromoKdMAX (BROMOscan, DiscoverX); format: binding
T28 construct: TRIM24(PHD, Bromo.); purchased DiscoverX; host or cells: T7 phage grown in E. coli host derived from BL21
Procedure: as §1, §2, §3

ATAD2A = target: T29, ATAD2A (Homo sapiens, UniProt Q6PL18); experiment: BromoKdMAX (BROMOscan, DiscoverX); format: binding
T29 construct: T7 phage strains displaying bromodomains were grown in parallel; purchased DiscoverX; host or cells: T7 phage in an E. coli host derived from the BL21 strain
Procedure: as §1, §2, §3

FALZ = target: T30, FALZ (Homo sapiens, UniProt Q12830); experiment: BromoKdMAX (BROMOscan, DiscoverX); format: binding; conditions: FALZ (BPTF)
T30 construct: T7 phage strains displaying bromodomains were grown in parallel; purchased DiscoverX; host or cells: T7 phage grown in E. coli host derived from BL21
Procedure: as §1, §2, §3

T21 sequence (P51531 1378-1506 limits assumed): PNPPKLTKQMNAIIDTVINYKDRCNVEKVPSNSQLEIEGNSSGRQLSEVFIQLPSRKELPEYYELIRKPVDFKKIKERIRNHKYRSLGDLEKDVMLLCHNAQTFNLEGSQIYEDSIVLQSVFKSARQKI
T22 sequence (Q9ULI0 951-1066 limits assumed): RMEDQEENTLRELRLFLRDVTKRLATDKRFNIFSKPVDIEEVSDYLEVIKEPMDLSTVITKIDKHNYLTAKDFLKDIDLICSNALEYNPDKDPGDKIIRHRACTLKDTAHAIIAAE
T26 sequence (Q9H8M2 136-240 limits assumed): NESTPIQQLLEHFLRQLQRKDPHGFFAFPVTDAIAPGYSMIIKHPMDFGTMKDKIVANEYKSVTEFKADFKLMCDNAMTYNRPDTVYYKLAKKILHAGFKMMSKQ
T17 sequence (Q92830 728-832 limits assumed): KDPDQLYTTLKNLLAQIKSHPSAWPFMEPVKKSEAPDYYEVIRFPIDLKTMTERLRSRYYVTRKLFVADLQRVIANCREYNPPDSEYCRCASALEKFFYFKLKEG
T9 sequence (Q15059 34-140 limits assumed): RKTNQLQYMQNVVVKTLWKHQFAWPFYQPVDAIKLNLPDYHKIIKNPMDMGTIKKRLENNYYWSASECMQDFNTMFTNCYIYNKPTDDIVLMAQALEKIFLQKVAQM
T23 sequence (P55201 628-732 limits assumed): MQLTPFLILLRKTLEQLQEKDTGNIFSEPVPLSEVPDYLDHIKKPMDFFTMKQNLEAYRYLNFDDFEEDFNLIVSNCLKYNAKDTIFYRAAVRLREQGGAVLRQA
T13 sequence (P51532 1453-1564 limits assumed): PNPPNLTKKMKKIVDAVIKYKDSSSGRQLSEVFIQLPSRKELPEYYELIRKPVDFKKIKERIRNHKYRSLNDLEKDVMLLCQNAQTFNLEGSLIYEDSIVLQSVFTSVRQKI
T11 sequence (Q9H0E9 1099-1207 limits assumed): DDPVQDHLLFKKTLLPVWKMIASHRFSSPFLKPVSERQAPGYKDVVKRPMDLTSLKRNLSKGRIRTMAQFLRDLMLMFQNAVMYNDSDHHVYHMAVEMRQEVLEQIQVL
T27 sequence (Q9UIF9 1793-1897 limits assumed): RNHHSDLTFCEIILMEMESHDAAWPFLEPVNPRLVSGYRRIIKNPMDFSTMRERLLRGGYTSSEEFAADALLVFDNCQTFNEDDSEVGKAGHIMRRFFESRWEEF
T16 sequence (Q8IZX4 1517-1626 limits assumed): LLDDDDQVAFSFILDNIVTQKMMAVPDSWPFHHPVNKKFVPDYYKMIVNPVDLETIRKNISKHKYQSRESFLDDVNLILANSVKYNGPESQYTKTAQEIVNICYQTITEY
T3 sequence (Q9ULD4 589-693 limits assumed): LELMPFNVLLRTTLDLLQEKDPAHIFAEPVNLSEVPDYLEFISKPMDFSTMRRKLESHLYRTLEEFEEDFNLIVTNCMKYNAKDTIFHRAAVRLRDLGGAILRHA
T20 sequence (P21675 1519-1628 limits assumed): as the sequence (Q8IZX4 1517-1626 limits assumed) above, with M46V, V51M, I102V, I107L counted along it
T24 sequence (Q15059 306-415 limits assumed): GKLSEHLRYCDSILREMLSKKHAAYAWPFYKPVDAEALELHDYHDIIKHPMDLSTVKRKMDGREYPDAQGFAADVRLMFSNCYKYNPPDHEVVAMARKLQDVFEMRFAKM
T7 sequence (Q9NSI6 1313-1418 limits assumed): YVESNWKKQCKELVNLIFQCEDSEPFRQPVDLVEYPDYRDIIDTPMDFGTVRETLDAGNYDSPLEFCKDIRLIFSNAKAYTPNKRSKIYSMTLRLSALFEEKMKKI
T5 sequence (Q86U86 177-287 limits assumed): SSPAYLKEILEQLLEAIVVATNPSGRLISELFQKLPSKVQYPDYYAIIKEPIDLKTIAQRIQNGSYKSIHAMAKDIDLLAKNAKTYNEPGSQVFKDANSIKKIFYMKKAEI
T4 sequence (Q86U86 653-763 limits assumed): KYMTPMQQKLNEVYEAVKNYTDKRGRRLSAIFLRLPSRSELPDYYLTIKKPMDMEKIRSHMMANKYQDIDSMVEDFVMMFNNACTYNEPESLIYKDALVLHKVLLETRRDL
T14 sequence (O95696 562-666 limits assumed): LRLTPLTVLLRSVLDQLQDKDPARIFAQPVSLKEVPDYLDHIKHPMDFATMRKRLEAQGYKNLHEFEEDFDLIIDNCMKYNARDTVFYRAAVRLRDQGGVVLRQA
T28 sequence (O15164 824-1006 limits assumed): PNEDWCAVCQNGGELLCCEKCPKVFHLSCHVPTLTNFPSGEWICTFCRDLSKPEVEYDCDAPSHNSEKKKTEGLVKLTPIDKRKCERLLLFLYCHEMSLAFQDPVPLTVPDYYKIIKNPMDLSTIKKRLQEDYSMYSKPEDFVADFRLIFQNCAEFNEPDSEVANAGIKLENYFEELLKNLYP
T10 sequence (Q9H0E9 706-811 limits assumed): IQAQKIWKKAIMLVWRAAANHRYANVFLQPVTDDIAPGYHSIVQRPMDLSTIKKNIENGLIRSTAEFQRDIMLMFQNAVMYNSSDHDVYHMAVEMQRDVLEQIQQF
T15 sequence (Q92831 723-827 limits assumed): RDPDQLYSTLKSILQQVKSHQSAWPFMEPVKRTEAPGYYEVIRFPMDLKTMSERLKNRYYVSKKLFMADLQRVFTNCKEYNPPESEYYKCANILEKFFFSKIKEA
T8 sequence (Q9UIF8 2060-2164 limits assumed): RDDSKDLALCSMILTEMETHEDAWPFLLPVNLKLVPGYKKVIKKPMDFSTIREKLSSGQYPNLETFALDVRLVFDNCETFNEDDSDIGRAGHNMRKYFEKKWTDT
T18 sequence (Q9BXF3 434-538 limits assumed): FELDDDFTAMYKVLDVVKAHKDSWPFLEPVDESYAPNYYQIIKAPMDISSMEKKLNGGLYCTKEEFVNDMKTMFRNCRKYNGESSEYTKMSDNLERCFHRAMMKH
T29 sequence (Q6PL18 980-1092 limits assumed): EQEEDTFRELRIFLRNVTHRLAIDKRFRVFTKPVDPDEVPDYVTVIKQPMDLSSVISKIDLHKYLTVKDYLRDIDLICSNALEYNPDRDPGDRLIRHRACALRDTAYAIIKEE
T19 sequence (Q15059 24-416 limits assumed): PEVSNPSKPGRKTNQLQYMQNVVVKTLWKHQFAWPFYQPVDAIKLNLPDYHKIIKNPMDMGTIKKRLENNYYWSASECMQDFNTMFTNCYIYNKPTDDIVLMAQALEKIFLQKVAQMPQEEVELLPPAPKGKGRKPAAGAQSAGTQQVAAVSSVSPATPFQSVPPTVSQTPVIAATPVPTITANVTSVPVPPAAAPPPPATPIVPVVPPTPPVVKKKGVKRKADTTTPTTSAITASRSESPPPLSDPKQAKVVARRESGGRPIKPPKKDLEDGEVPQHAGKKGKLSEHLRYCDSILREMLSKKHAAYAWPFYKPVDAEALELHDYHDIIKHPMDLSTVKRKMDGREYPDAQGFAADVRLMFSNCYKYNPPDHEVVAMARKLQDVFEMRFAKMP
T12 sequence (Q9NPI1 131-235 limits assumed): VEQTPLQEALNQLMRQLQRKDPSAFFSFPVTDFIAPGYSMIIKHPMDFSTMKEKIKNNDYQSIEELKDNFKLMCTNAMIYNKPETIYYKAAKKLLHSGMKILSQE
T25 sequence (O15164 899-1004 limits assumed): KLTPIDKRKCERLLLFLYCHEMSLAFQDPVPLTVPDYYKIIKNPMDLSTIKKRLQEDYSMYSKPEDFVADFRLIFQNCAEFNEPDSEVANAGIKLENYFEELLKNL

Kd (BRDT(1)): > 10 µM | Kd (BRDT(2)): > 10 µM | Kd (BRPF3): > 10 µM | Kd (PBRM1(5)): > 10 µM | Kd (PBRM1(2)): > 10 µM | Kd (BRDT(1, 2)): > 10 µM | Kd (WDR9(2)): > 10 µM | Kd (BAZ2B): > 10 µM | Kd (BRD3(1)): > 10 µM | Kd (BRD8(1)): > 10 µM | Kd (BRD8(2)): > 10 µM | Kd (BRD7): > 10 µM | Kd (SMARCA4): > 10 µM | Kd (BRD1): > 10 µM | Kd (PCAF): > 10 µM | Kd (TAF1L(2)): > 10 µM | Kd (GCN5L2): > 10 µM | Kd (CECR2): > 10 µM | Kd (BRD3(1, 2)): > 10 µM | Kd (TAF1(2)): > 10 µM | Kd (SMARCA2): > 10 µM | Kd (ATAD2B): > 10 µM | Kd (BRPF1): > 10 µM | Kd (BRD3(2)): > 10 µM | Kd (TRIM24(Bromo.)): > 10 µM | Kd (BRD9): > 10 µM | Kd (BAZ2A): > 10 µM | Kd (TRIM24(PHD, Bromo.)): > 10 µM | Kd (ATAD2A): > 10 µM | Kd (FALZ): > 10 µM
Structure (SMILES): COc1cncc(-c2cc(Nc3cccc(F)c3)nc([C@@H]3CC[C@H](C)N(C(C)=O)C3)n2)c1 [Compound 00004]
EC50 (OPM-2): < 0.2 µM
